Source: US20230398130A1, “METHODS AND COMPOSITIONS FOR DIFFERENTIATING STEM CELLS” (Massachusetts Institute of Technology, priority 2020, published 2023)

Assays:
ISC-enriched organoids [1] = test: Primary screen, 384-well 2.5-D organoid differentiation (ENR+CD, 6 days): carbachol-induced lysozyme secretion (LYZ.S); type: cell-based, murine; settings: for Dose.FC.LYZ.S (log 2 fold change, carbachol-induced lysozyme secretion): vs plate median; for Z.LYZ.S: standard z score; for Z.LYZ.S / SSMD.LYZ.S: primary screen; for SSMD.LYZ.S: strictly standardized mean difference; for Dose.FC.LYZ.S: ENR+CD, 6 days, FC vs plate median
Source text: (§1) High-throughput screening.

ISC-enriched organoids [2] = test: Primary screen, 384-well 2.5-D organoid differentiation (ENR+CD, 6 days, Target Selective Inhibitor Library, vs whole-plate median): ATP (CellTiter-Glo 3D, CTG); settings: for Dose.FC.CTG (log 2 fold change, ATP): vs plate median; for SSMD.CTG: strictly standardized mean difference; for Dose.FC.CTG: ENR+CD, 6 days, FC vs plate median
ISC-enriched organoids [3] = test: Primary screen, 384-well 2.5-D organoid differentiation (ENR+CD, 6 days): basal lysozyme secretion (LYZ.NS); type: cell-based, murine; settings: for Dose.FC.LYZ.NS (log 2 fold change, basal lysozyme secretion): vs plate median; for SSMD.LYZ.NS: strictly standardized mean difference, primary screen; for Dose.FC.LYZ.NS: ENR+CD, 6 days, FC vs plate median; for Z.LYZ.NS: standard z score of FC
Source text: as §1

[4] = 1st of the 4 dose lines of the treatment (dose not given)
[5] = 2nd of the 4 dose lines of the treatment (dose not given)
[6] = 3rd of the 4 dose lines of the treatment (dose not given)
[7] = 4th of the 4 dose lines of the treatment (dose not given)

SMILES	Dose.FC.LYZ.S (log 2 fold change, carbachol-induced lysozyme secretion) (ISC-enriched organoids [1]; dose 0.08 uM)	Dose.FC.LYZ.S (log 2 fold change, carbachol-induced lysozyme secretion) (ISC-enriched organoids [1]; dose 0.40 uM)	Dose.FC.LYZ.S (log 2 fold change, carbachol-induced lysozyme secretion) (ISC-enriched organoids [1]; dose 2.00 uM)	Dose.FC.LYZ.S (log 2 fold change, carbachol-induced lysozyme secretion) (ISC-enriched organoids [1]; dose 10.00 uM)	Z.CTG (standard z score) (ISC-enriched organoids [2]; dose 0.08 uM)	Dose.FC.CTG (log 2 fold change, ATP) (ISC-enriched organoids [2]; dose 0.08 uM)	Z.CTG (standard z score) (ISC-enriched organoids [2]; dose 0.40 uM)	Dose.FC.CTG (log 2 fold change, ATP) (ISC-enriched organoids [2]; dose 0.40 uM)	Z.CTG (standard z score) (ISC-enriched organoids [2]; dose 2.00 uM)	Dose.FC.CTG (log 2 fold change, ATP) (ISC-enriched organoids [2]; dose 2.00 uM)	Z.CTG (standard z score) (ISC-enriched organoids [2]; dose 10.00 uM)	Dose.FC.CTG (log 2 fold change, ATP) (ISC-enriched organoids [2]; dose 10.00 uM)	Z.LYZ.NS (standard z score) (ISC-enriched organoids [3]; dose 0.08 uM)	Dose.FC.LYZ.NS (log 2 fold change, basal lysozyme secretion) (ISC-enriched organoids [3]; dose 0.08 uM)	Z.LYZ.NS (standard z score) (ISC-enriched organoids [3]; dose 0.40 uM)	Dose.FC.LYZ.NS (log 2 fold change, basal lysozyme secretion) (ISC-enriched organoids [3]; dose 0.40 uM)	Z.LYZ.NS (standard z score) (ISC-enriched organoids [3]; dose 2.00 uM)	Dose.FC.LYZ.NS (log 2 fold change, basal lysozyme secretion) (ISC-enriched organoids [3]; dose 2.00 uM)	Z.LYZ.NS (standard z score) (ISC-enriched organoids [3]; dose 10.00 uM)	Dose.FC.LYZ.NS (log 2 fold change, basal lysozyme secretion) (ISC-enriched organoids [3]; dose 10.00 uM)	also measured
C[C@]1(c2nc3c(C(N)=O)cccc3[nH]2)CCCN1 [Veliparib (ABT-888)]	0.105	0.179	−0.016	−0.136	0.307	0.128	0.132	0.055	−0.057	−0.024	−0.521	−0.218	0.649	0.075	1.211	0.139	0.203	0.023	−0.537	−0.062	–
NC(=O)Nc1sc(-c2ccc(F)cc2)cc1C(N)=O [TPCA-1]	0.041	−0.029	−0.054	−0.294	−0.146	−0.061	−0.010	−0.004	−0.012	−0.005	−1.269	−0.531	0.627	0.072	−0.413	−0.047	−0.514	−0.059	−1.711	−0.197	–
O=C(C[S+]([O-])Cc1ccco1)NC/C=C\COc1cc(CN2CCCCC2)ccn1 (centres unmarked) [Lafutidine]	–	–	–	–	–	–	–	–	–	–	–	–	–	–	–	–	–	–	–	–	Z.LYZ.S (ISC-enriched organoids [1]; [4]): 0.339; Z.LYZ.S (ISC-enriched organoids [1]; [5]): 0.506; Z.LYZ.S (ISC-enriched organoids [1]; [6]): 0.491; Z.LYZ.S (ISC-enriched organoids [1]; [7]): −0.093; SSMD.LYZ.S (ISC-enriched organoids [1]; [4]): 0.331; SSMD.LYZ.S (ISC-enriched organoids [1]; [5]): 0.460; SSMD.LYZ.S (ISC-enriched organoids [1]; [6]): 0.503; SSMD.LYZ.S (ISC-enriched organoids [1]; [7]): −0.111; Z.CTG (ISC-enriched organoids [2]; Dose 0.08 uM, primary screen, standard z score): 0.363; Z.CTG (ISC-enriched organoids [2]; Dose 0.40 uM, primary screen, standard z score): 0.346; Z.CTG (ISC-enriched organoids [2]; Dose 2.00 uM, primary screen, standard z score): 0.329; Z.CTG (ISC-enriched organoids [2]; Dose 10.00 uM, primary screen, standard z score): −0.235; SSMD.CTG (ISC-enriched organoids [2]; primary screen, 1st of the 4 dose lines of the treatment (dose not given)): 0.452; SSMD.CTG (ISC-enriched organoids [2]; primary screen, 2nd of the 4 dose lines of the treatment (dose not given)): 0.476; SSMD.CTG (ISC-enriched organoids [2]; primary screen, 3rd of the 4 dose lines of the treatment (dose not given)): 0.505; SSMD.CTG (ISC-enriched organoids [2]; primary screen, 4th of the 4 dose lines of the treatment (dose not given)): −0.249; SSMD.LYZ.NS (ISC-enriched organoids [3]; [4]): 0.285; SSMD.LYZ.NS (ISC-enriched organoids [3]; [5]): 0.064; SSMD.LYZ.NS (ISC-enriched organoids [3]; [6]): 0.359; SSMD.LYZ.NS (ISC-enriched organoids [3]; [7]): 0.581
O=C(NC(NC(=S)Nc1ccc(F)c([N+](=O)[O-])c1)C(Cl)(Cl)Cl)C(c1ccccc1)c1ccccc1 (centres unmarked) [CGK733]	–	–	–	–	–	–	–	–	–	–	–	–	–	–	–	–	–	–	–	–	Dose.FC.LYZ.S (ISC-enriched organoids [1]; Dose 0.08 uM): 0.008 log 2 fold change; Dose.FC.LYZ.S (ISC-enriched organoids [1]; Dose 0.40 uM): −0.018 log 2 fold change; Dose.FC.LYZ.S (ISC-enriched organoids [1]; Dose 2.00 uM): −0.125 log 2 fold change; Dose.FC.LYZ.S (ISC-enriched organoids [1]; Dose 10.00 uM): −0.230 log 2 fold change; Dose.FC.CTG (ISC-enriched organoids [2]; Dose 0.08 uM): −0.362 log 2 fold change; Z.CTG (ISC-enriched organoids [2]; Dose 0.08 uM, standard z score of FC): −0.864; Dose.FC.CTG (ISC-enriched organoids [2]; Dose 0.40 uM): −0.093 log 2 fold change; Z.CTG (ISC-enriched organoids [2]; Dose 0.40 uM, standard z score of FC): −0.221; Dose.FC.CTG (ISC-enriched organoids [2]; Dose 2.00 uM): −0.244 log 2 fold change; Z.CTG (ISC-enriched organoids [2]; Dose 2.00 uM, standard z score of FC): −0.582; Dose.FC.CTG (ISC-enriched organoids [2]; Dose 10.00 uM): −0.478 log 2 fold change; Z.CTG (ISC-enriched organoids [2]; Dose 10.00 uM, standard z score of FC): −1.143; Dose.FC.LYZ.NS (ISC-enriched organoids [3]; Dose 0.08 uM): 0.099 log 2 fold change; Z.LYZ.NS (ISC-enriched organoids [3]; Dose 0.08 uM): 0.863; Dose.FC.LYZ.NS (ISC-enriched organoids [3]; Dose 0.40 uM): −0.026 log 2 fold change; Z.LYZ.NS (ISC-enriched organoids [3]; Dose 0.40 uM): −0.222; Dose.FC.LYZ.NS (ISC-enriched organoids [3]; Dose 2.00 uM): −0.099 log 2 fold change; Z.LYZ.NS (ISC-enriched organoids [3]; Dose 2.00 uM): −0.865; Dose.FC.LYZ.NS (ISC-enriched organoids [3]; Dose 10.00 uM): −0.122 log 2 fold change; Z.LYZ.NS (ISC-enriched organoids [3]; Dose 10.00 uM): −1.063
